Entries after “also recorded” stand apart in the source; their conditions may differ.
Assays:
[1] = test system: promoter for human IL-2; assay: IL-2 reporter gene assay; format: cell-based; details: concentration required for 50% inhibition
Description: This assay method is disclosed and enabled in U.S. Patent No. 5,897,990, which is hereby incorporated by reference in its entirety and for all purposes.
The cell line is preferentially a human T-cell or macrophage cell line, e.g., a Jurkat cell line, preferably selected for high native production of the desired gene product, for example, producing IL-2 in response to stimulation in the case of an IL-2 reporter gene assay. The reporter gene is any gene expressing a readily observable product, e.g., an enzyme marker such as β-galactosidase or luciferase, or any other suitable enzyme marker. For example, where the enzyme marker is β-galactosidase, the reporter gene is, e.g., a bacterial lacZ gene; where the enzyme marker is luciferase, the gene is, e.g., a Phorinus luciferase gene. Another suitable marker is the gene for the green fluorescent protein produced by the bioluminescent jellyfish, e.g., as described in Chalfie et al., Science, Vol. 263, pp. 802-805 (1994). The promoter gene is a promoter gene for a cytokine or protein for which transcription is stimulated or suppressed by the drug to be monitored.
Blood samples from the patient are diluted, their effect on gene expression in the above described system is measured, and the assay is standardized using known concentrations of the immunosuppressive material.

[2] = Clinical study of oral pimecrolimus in psoriasis patients (efficacy and safety)
Experimental: A clinical study was initiated with an oral formulation of pimecrolimus to treat psoriatic patients. Pimecrolimus was evaluated as treatment for psoriasis using an oral dose of 60 mg (30 mg b.i.d) during a 4-week clinical study. The cohort included 10 patients; 8 received the treatment and 2 received a placebo.
The dose used in the study was 60 mg/day, given as 30 mg b.i.d. To make this dose the 20 mg tablets were cut in half using a special cutter (Tablettenteiler NR.96) so as to obtain 30 mg of pimecrolimus or a matched amount of placebo.

[3] = test system: eosinophil influx into the lungs; assay: Aeroallergen induced eosinophil influx into the lungs of sensitized mice; format: in vivo; details: oral administration
Description: Direct evidence on the efficacy on pimecrolimus in asthma is provided by studies showing the effect on lung eosinophilia rats. One study looked at the inhibitory effect of pimecrolimus on the aeroallergen induced eosinophil influx into the lungs of sensitized mice.

[4] = in vivo; parameters: species or system rats
Experimental: In another study designed to explore the differences between pimecrolimus and FK506 and to determine whether these differences might be associated with a different tissue distribution, the exposure to pimecrolimus and FK506 in various organs after oral administration were measured. Animals received 2 oral doses of 25 mg/kg in an interval of 2 hours. […] Pimecrolimus was found consistently to have a higher skinlblood concentration ratio than FK506 (2 hours: 7.3 vs. 2.8; 6 hours: 13 vs. 1.6; 24 hours: 36 vs. 6.0). The AUC0-24h in skin calculated for pimecrolimus was twice as high as with FK506.
These distribution characteristics are relevant not only for oral, but also for topical application, as the compound enters systemic circulation after permeation through the skin.

[5] = test system: systemic immune responses; assay: Models of systemic immunosuppression (graft-versus-host reaction, antibody formation to sheep red blood cells, kidney transplantation); format: in vivo, rats; details: transplantation and vaccination models
Description: Pimecrolimus (also called ASM981 and ELIDEL®) is an ascomycin macrolactam-derivative with anti-inflammatory properties, chemical name is 33-epichloro-33-desoxy-ascomycin. Pimecrolimus is an ascomycin macrolactam-derivative developed originally for topical and oral treatment of inflammatory skin diseases such as atopic dermatitis and psoriasis. Pimecrolimus binds to macrophilin-12 and inhibits the Ca-dependent phosphatase calcineurin. As a consequence, it inhibits T cell activation and blocks the transcription and release of both Th1 and Th2 inflammatory cytokines. […] Tachyphylaxis has not been observed.

[6] = Pharmacokinetics after multiple oral administrations to psoriatic patients for 28 days; format: in vivo, human
Experimental: Table 4. Summary of Cmax and AUCτ Following Multiple Oral Administrations of Pimecrolimus to Psoriatic Patients for 28 Days
In this study pimecrolimus was rapidly absorbed with a median tmax across all the dose groups and collection days of between 0.8 and 2.0 hours. […] There was no effect of age or weight on the apparent clearance of pimecrolimus.

[7] = test system: allergic contact dermatitis (ACD); assay: Rat ACD model; format: in vivo
[8] = 20 mg b.i.d. oral, Day 13, Mean ± SD, 18720 min
[9] = 20 mg b.i.d. oral, Day 28, Mean ± SD, 40320 min
[10] = human, blood, 5 mg q.d. oral, Day 1, Mean ± SD
[11] = human, blood, 5 mg q.d. oral, Day 13, Mean ± SD
[12] = human, blood, 5 mg q.d. oral, Day 28, Mean ± SD
[13] = human, blood, 10 mg q.d. oral, Day 1, Mean ± SD
[14] = human, blood, 10 mg q.d. oral, Day 28, Mean ± SD
[15] = human, blood, 20 mg q.d. oral, Day 13, Mean ± SD
[16] = human, blood, 20 mg q.d. oral, Day 28, Mean ± SD
[17] = human, blood, 30 mg b.i.d. oral, Day 1, Mean ± SD
[18] = human, blood, 30 mg b.i.d. oral, Day 13, Mean ± SD
[19] = human, blood, 30 mg b.i.d. oral, Day 28, Mean ± SD

CC[C@@H]1/C=C(\C)C[C@H](C)C[C@H](OC)[C@H]2O[C@@](O)(C(=O)C(=O)N3CCCC[C@H]3C(=O)O[C@H](/C(C)=C/[C@@H]3CC[C@H](Cl)[C@H](OC)C3)[C@H](C)[C@@H](O)CC1=O)[C@H](C)C[C@@H]2OC [pimecrolimus, 33-epichloro-33-desoxy-ascomycin]
IC50 [1]: 1.5 nM | clinical effect on psoriasis ([2]; oral 60 mg (30 mg b.i.d), 4-week study, 8 treated patients): reduction of psoriasis | tolerability in man ([2]; oral dosing up to 60 mg (or 30 mg b.i.d.) over 28 days): well-tolerated | eosinophil count in the lung and eosinophil peroxidase activity [3]: able to reduce | AUC0-24h in skin compared with FK506 ([4]; 2 oral doses of 25 mg/kg): twice as high | exposure in all other tissues, including blood, lymph nodes and kidney, compared with FK506 ([4]; 2 oral doses of 25 mg/kg): lower | Kp at 2 h ([4]; rat, skin, 2 oral doses of 25 mg/kg in an interval of 2 hours, 2 hours after the last dosing, read-out: skinlblood concentration ratio): 7.3 | Kp at 6 h ([4]; rat, skin, 2 oral doses of 25 mg/kg in an interval of 2 hours, 6 hours after the last dosing, read-out: skinlblood concentration ratio): 13 | Kp at 24 h ([4]; rat, skin, 2 oral doses of 25 mg/kg in an interval of 2 hours, 24 hours after the last dosing, read-out: skinlblood concentration ratio): 36 | systemic immunosuppressive effect compared to CyA and FK506 [5]: only a low potential to impair systemic immune responses; also recorded: minimal immunosuppressive effects | AUCτ,b ([6]; 20 mg b.i.d. oral, Day 1, Mean ± SD, 1440 min): 139.9 ± 39.2 ng·h/mL | AUCτ,b [6, 8]: 259.6 ± 122.6 ng·h/mL | Cmax,b [6, 8]: 54.7 ± 36.3 ng/mL | AUCτ,b [6, 9]: 229.5 ± 90.9 ng·h/mL | Cmax,b [6, 9]: 41.7 ± 16.5 ng/mL | mean AUC at steady-state over 24 hours ([6]; 30 mg b.i.d., day 28, calculated assuming identical AUCτ for morning and evening doses): ~562 ng·h/mL | AUC at 24 h ([6]; human, blood, po, 30 mg b.i.d., day 13, calculated assuming identical AUCτ for morning and evening doses, read-out: mean AUC at steady-state over 24 hours): ~590 ng·h/mL | Tmax ([6]; human, blood, po, across all the dose groups and collection days, read-out: median tmax): 0.8 to 2 h | concentration at 504 h ([6]; human, blood, po, day 21 of the 30 mg BID dose schedule, read-out: highest median blood trough concentration): 18 ng/mL | half-life ([6]; human, blood, po, recorded after the final dose, read-out: terminal half-life): 50 to 100 h | AUC tau at 24 h [6, 10]: 23.3 ± 13 ng·h/mL | Cmax at 24 h [6, 10]: 8.7 ± 2.3 ng/mL | AUC tau at 312 h [6, 11]: 44.5 ± 18.2 ng·h/mL | Cmax at 312 h [6, 11]: 9.7 ± 2.5 ng/mL | AUC tau at 672 h [6, 12]: 35.5 ± 15.8 ng·h/mL | Cmax at 672 h [6, 12]: 9.9 ± 4.8 ng/mL | AUC tau at 24 h [6, 13]: 80.6 ± 31.4 ng·h/mL | Cmax at 24 h [6, 13]: 25.9 ± 8.5 ng/mL | Cmax at 312 h ([6]; human, blood, 10 mg q.d. oral, Day 13, Mean ± SD): 21.8 ± 7.9 ng/mL | AUC tau at 672 h [6, 14]: 90.9 ± 35.4 ng·h/mL | Cmax at 672 h [6, 14]: 24 ± 9.2 ng/mL | Cmax at 24 h ([6]; human, blood, 20 mg b.i.d. oral, Day 1, Mean ± SD): 41.3 ± 16 ng/mL | AUC tau at 24 h ([6]; human, blood, 20 mg q.d. oral, Day 1, Mean ± SD): 173 ± 56 ng·h/mL | AUC tau at 312 h [6, 15]: 253 ± 40.1 ng·h/mL | Cmax at 312 h [6, 15]: 55.3 ± 21.4 ng/mL | AUC tau at 672 h [6, 16]: 258 ± 65.9 ng·h/mL | Cmax at 672 h [6, 16]: 58.3 ± 25.4 ng/mL | AUC tau at 24 h [6, 17]: 206 ± 64 ng·h/mL | Cmax at 24 h [6, 17]: 49.1 ± 21.6 ng/mL | AUC tau at 312 h [6, 18]: 295 ± 60.1 ng·h/mL | Cmax at 312 h [6, 18]: 54.5 ± 27 ng/mL | AUC tau at 672 h [6, 19]: 281 ± 32.8 ng·h/mL | Cmax at 672 h [6, 19]: 41.1 ± 8.4 ng/mL | AUC(0-t) at 24 h ([6]; human, blood, psoriatic patients, oral, read-out: AUC(0-24) associated with a significant clinical response in the target epithelial tissue): ≥ 400 ng·h/mL | Trough concentrations associated with a significant clinical response in the target epithelial tissue ([6]; human, in vivo, po): ≥ 7 ng/mL | efficacy compared with FK506 ([7]; oral, same doses, rat ACD model): superior | efficacy relative to oral CyA ([7]; rat ACD (12.5 mg/kg pimecrolimus similar to 50 mg/kg CyA)): 4 fold

— EP1649856A2, “Use of pimecrolimus for selective immunomodulation” (Novartis AG, priority 2001, dated 2002)
